The values below come from ChEMBL document CHEMBL1909612, “AHL-dependent quorum sensing inhibition: synthesis and biological evaluation of α-(N-alkyl-carboxamide)-γ-butyrolactones and α-(N-alkyl-sulfonamide)-γ-butyrolactones” (Bioorg Med Chem Lett, 2011).

pIC50: −log10 of the molar value. Calls of active or inactive are those of the source. The calls are words filed in the database; no cut-off is given here.

Experiment [1] has as its target T1, Transcriptional activator protein LuxR (Aliivibrio fischeri, UniProt P12746).
T1 sequence (P12746 whole entry): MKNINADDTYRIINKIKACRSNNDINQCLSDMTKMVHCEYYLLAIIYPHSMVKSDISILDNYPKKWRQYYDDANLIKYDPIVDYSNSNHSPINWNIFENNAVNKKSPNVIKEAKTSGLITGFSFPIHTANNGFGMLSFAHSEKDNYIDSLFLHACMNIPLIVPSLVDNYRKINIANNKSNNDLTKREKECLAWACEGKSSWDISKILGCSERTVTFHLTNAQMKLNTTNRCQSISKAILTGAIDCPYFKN
In words: Antagonist activity at Vibrio fischeri LuxR expressed in Escherichia coli NM522 containing Photorhabdus luminescens LuxCDABE assessed as inhibition of 3-oxo-C6-HSL-induced quorum sensing activation mediated bioluminescence after 4 to 5 hrs by bioluminescence assay. The format is functional.

Experiment [2] deals with T2, Transcriptional activator protein LuxR (Aliivibrio fischeri) (UniProt P12746).
T2 sequence (whole entry): T1 sequence (P12746 whole entry)
Put plainly: Agonist activity at Vibrio fischeri LuxR expressed in Escherichia coli NM522 containing Photorhabdus luminescens LuxCDABE assessed as induction of quorum sensing activation mediated bioluminescence at 0.1 to 200 uM after 4 to 5 hrs by bioluminescence assay. Format: functional.

As for `CCCCCCCCNC(=O)C1CCCC1=O` (stereo not drawn), in experiment [1], the pIC50 (as a rule, −log10 of the IC50, conventionally taken in molar units) was 4.11. Moreover, the outcome in experiment [2] was inactive.
Take `CCCCCNC(=O)C1CCCC1O` (mixture of isomers) [listing 1 of 2 here]: the outcome in experiment [2] was inactive.
Take `CCCCCCCCNC(=O)C1CCOC1=O` (stereo not drawn): the pIC50 in experiment [1] is 4.28. Further, in experiment [2], the result was inactive.
Taken in the same sequence, the figures for `CCCCCCNC(=O)C1CCOC1=O` (stereo not drawn) were 4.27 and “inactive”.
The matching figures for `CCCCNS(=O)(=O)C1CCOC1=O` (stereo not drawn): below 3.70 and “inactive”.
Taken in the same sequence, the figures for `CCCCCNS(=O)(=O)C1CCOC1=O` (stereo not drawn) were 4.15 and “inactive”.
`CCCCN(C)C(=O)C1CCOC1=O` (stereo not drawn): the result in experiment [2] was inactive.
On to `CCCCCNC(=O)C1CCOC1=O` (stereo not drawn), for which the pIC50 in experiment [1] is 4.47. Besides, the result in experiment [2] was inactive.
Take `CCCCCNC(=O)C1CCCC1O` (stereo not drawn): the pIC50 in experiment [1] was 4.04.
For `CCCCCCN(C)C(=O)C1CCOC1=O` (stereo not drawn), in experiment [2], the result was inactive.
As to `CCCCCCCCCCNC(=O)C1CCOC1=O` (stereo not drawn), the pIC50 in experiment [1] is 4.12. In addition, in experiment [2], the outcome was inactive.
Taken in the same sequence, the figures for `CCCCCNC(=O)C1CCCC1=O` (stereo not drawn) were 4.40 and “inactive”.
Take `CCCCNC(=O)C1CCOC1=O` (stereo not drawn): the pIC50 in experiment [1] is 4.02. Also, the outcome in experiment [2] was inactive.
`CCCCCNC(=O)C1CCCC1O` (mixture of isomers) [listing 2 of 2 here]: the pIC50 in experiment [1] was 3.70.
